Laboratory results reported in patent US5081131A, “Omega-((hetero)alkyl)benz(cd)-indol-2-amines” (American Cyanamid Company, priority 1988, dated 1992).

Tested on: spontaneously hypertensive rats
Experiment: Hypotensive activity in spontaneously hypertensive rats (MABP)
Format: in vivo, rat (Okamoto strain)
Details: SHR, gavage, two doses of 10 mg/kg or less 24 h apart, MABP at 28 h; average baseline 160±1.5 mm Hg
Description: The novel compounds of the present invention are active hypotensive agents and were tested for hypotensive activity by the method of P. S. Chan and D. Poorvin, Clinical and Experimental Hypertension, 1 (6), 817-830 (1979). Male, 16 week old, spontaneously hypertensive rats of the Okamoto strain, from Taconic Farms, Germantown, N.Y., having an average mean arterial blood pressure of 160±1.5 mm of mercury, were used in the test. One to 4 rats were used per test compound. A rat was dosed by gavage with a test compound, suspended in 2% pre-boiled starch at a concentration of 50 mg/ml, at a doses of 10 mg/kg of body weight or less, with 0.9% sodium chloride loading at a dose of 25 ml/kg of body weight. A second identical dose of the test compound, without sodium chloride loading was given 24 hours later. At 28 hours after initial dose the mean arterial blood pressure (MABP) was measured. The procedure was repeated in a second and third rat when necessary.

CC(CNC1=Nc2c(Cl)cc(Cl)c3cccc1c23)Cn1ccnc1 (centres unmarked) [6,8-Dichloro-N-(3-(1H-imidazol-1-yl)-2-methylpropyl)benz(cd)indol-2-amine sesqui-furamate]
Avg. MABP in mm Hg (No. of Rats): 116 mm Hg

CC(CCNC1=Nc2c(Cl)cc(Cl)c3cccc1c23)n1ccnc1.Cl.Cl (centres unmarked) [6,8-Dichloro-N-(3-(1H-imidazol-1-yl)butyl)benz(cd)indol-2-amine dihydrochloride]
Avg. MABP in mm Hg (No. of Rats): 134 mm Hg

Cl.Cl.Clc1cc(Cl)c2cccc3c2c1N=C3NCCCCCCCn1ccnc1 [6,8-Dichloro-N-(7-(1H-imidazol-1-yl)heptyl)benz(cd)indol-2-amine dihydrochloride]
Avg. MABP in mm Hg (No. of Rats): 130 mm Hg

CC(CNC1=Nc2ccc(Br)c3cccc1c23)Cn1ccnc1.Cl.Cl (centres unmarked) [6-Bromo-N-(3-(1H-imidazol-1-yl)-2-methylpropyl)benz(cd)indol-2-amine, dihydrochloride]
Avg. MABP in mm Hg (No. of Rats): 107 mm Hg

Clc1ccc2c3c(cccc13)C(NCCCn1ccnc1)=N2 [6-Chloro-N-(3-(1H-imidazol-l-yl)propyl)benz(cd)indol-2-amine]
Avg. MABP in mm Hg (No. of Rats): 124 mm Hg

Fc1ccc2c3c(cccc13)C(NCCCn1ccnc1)=N2 [6-Fluoro-N-(3-(1H-imidazol-1-yl)propyl)benz(cd)indol-2-amine]
Avg. MABP in mm Hg (No. of Rats): 94 mm Hg

C(=C/Cn1ccnc1)/CNC1=Nc2cccc3cccc1c23.O=C(O)/C=C/C(=O)O [(Z)-N-(4-(1H-imidazol-1-yl)-2-butenyl)benz(cd)indol-2-amine, fumarate]
Avg. MABP in mm Hg (No. of Rats): 102 mm Hg

Clc1ccc(C(Cn2cncn2)NC2=Nc3cccc4cccc2c34)cc1.O=C(O)/C=C/C(=O)O (centres unmarked) [N-(1-(4-Chlorophenyl)-2-(1H-1,2,4-triazol-1-yl)ethyl)benz(cd)indol-2-amine fumarate]
Avg. MABP in mm Hg (No. of Rats): 142 mm Hg

O=C(O)/C=C/C(=O)O.c1cc2c3c(cccc3c1)C(NCCn1ccnc1)=N2 [N-(2-(1H-imidazol-1-yl)ethyl)benz(cd)indol-2-amine, fumarate]
Avg. MABP in mm Hg (No. of Rats): 97 mm Hg

O=C(O)/C=C/C(=O)O.c1cc2c3c(cccc3c1)C(NCCOCCn1ccnc1)=N2 [N-(2-(2-(1H-imidazol-1-yl)ethoxy)ethyl)benz(cd)indol-2-amine, fumarate]
Avg. MABP in mm Hg (No. of Rats): 108 mm Hg

O=C(O)/C=C/C(=O)O.c1ccc(CSCCNC2=Nc3cccc4cccc2c34)nc1 [N-(2-((2-pyridinylmethyl)thio)ethyl)benz(cd)indol-2-amine fumarate]
Avg. MABP in mm Hg (No. of Rats): 143 mm Hg

CCC(CC)(CNC1=Nc2cccc3cccc1c23)Cn1ccnc1 [N-(2-Ethyl-2-(1H-imidazol-1-yl)methyl)butylbenz(cd)indol-2-amine sesqui-fumarate]
Avg. MABP in mm Hg (No. of Rats): 112 mm Hg

CN(CCCn1ccnc1)C1=Nc2cccc3cccc1c23 [N-(3-1H-imidazol-1-yl)propyl)-N-methylbenz(cd)indol-2-amine]
Avg. MABP in mm Hg (No. of Rats): 95 mm Hg

O=C(O)/C=C/C(=O)O.c1cc2c3c(cccc3c1)C(NCCCn1cccn1)=N2 [N-(3-(1H-Pyrazol-1-yl)propyl)benz(cd)indol-2-amine fumarate]
Avg. MABP in mm Hg (No. of Rats): 141 mm Hg

O=C(O)/C=C/C(=O)O.O=C(O)/C=C/C(=O)O.OC(CNC1=Nc2cccc3cccc1c23)Cn1ccnc1 (centres unmarked) [N-(3-(1H-imidazol-1-yl)-2-hydroxypropyl)benz(cd)indol-2-amine bis-fumarate]
Avg. MABP in mm Hg (No. of Rats): 132 mm Hg

O=C(O)/C=C/C(=O)O.O=C(O)/C=C/C(=O)O.c1cc2c3c(cccc3c1)C(NCCCn1ccnc1)=N2 [N-(3-(1H-imidazol-1-yl)propyl)benz(cd)indol-2-amine, bis-fumarate]
Avg. MABP in mm Hg (No. of Rats): 81 mm Hg

Cc1csc(CCCNC2=Nc3cccc4cccc2c34)n1.O=C(O)/C=C/C(=O)O [N-(3-(4-Methyl-2-thiazolyl)propyl)benz(cd)indol-2-amine fumarate]
Avg. MABP in mm Hg (No. of Rats): 122 mm Hg

Cc1cn(CCCNC2=Nc3cccc4cccc2c34)cn1.Cl.Cl [N-(3-(4-methyl-1H-imidazol-1-yl)propyl)benz(cd)indol-2-amine, dihydrochloride]
Avg. MABP in mm Hg (No. of Rats): 106 mm Hg

c1cc2c3c(cccc3c1)C(NOCCCCn1ccnc1)=N2 [N-(4-(1H-imidazol-1-yl)butoxy)benz(cd)indol-2-amine]
Avg. MABP in mm Hg (No. of Rats): 111 mm Hg

C[N+]1=C(NCCCCn2cc[n+](C)c2)c2cccc3cccc1c23.[I-].[I-] [N-(4-(1H-imidazol-1-yl)butyl)benz(cd)indol-2-amine dimethiodide]
Avg. MABP in mm Hg (No. of Rats): 110 mm Hg

c1cc2c3c(cccc3c1)C(NCCCCn1ccnc1)=N2 [N-(4-(1H-imidazol-1-yl)butyl)benz(cd)indol-2-amine, hydriodide]
Avg. MABP in mm Hg (No. of Rats): 74 mm Hg

c1cncc(CCCCNC2=Nc3cccc4cccc2c34)c1 [N-(4-(3-Pyridinyl)butyl)benz(cd)indol-2-amine sesqui-fumarate]
Avg. MABP in mm Hg (No. of Rats): 95 mm Hg

C(=Cc1cccnc1)CCCNC1=Nc2cccc3cccc1c23 [N-(5-(3-Pyridinyl)-4-pentenyl)benz(cd)indol-2-amine sesqui-fumarate]
Avg. MABP in mm Hg (No. of Rats): 140 mm Hg

c1cc2c3c(cccc3c1)C(NCCCCCCCn1ccnc1)=N2 [N-(7-(1H-imidazol-1-yl)heptyl)benz(cd)indol-2-amine]
Avg. MABP in mm Hg (No. of Rats): 127 mm Hg

Cl.Cl.c1cc2c3c(cccc3c1)C(NCCCCCCCCCCn1ccnc1)=N2 [N-(10-(1H-imidazol-1-yl)decyl)benz(cd)indol-2-amine, dihydrochloride]
Avg. MABP in mm Hg (No. of Rats): 124 mm Hg

O=C(c1ccco1)N(CCCCn1ccnc1)C1=Nc2cccc3cccc1c23 [N-(Benz(cd)indol-2-yl)-N-(4-(1H-imidazol-1-yl)butyl)-2-furancarboxamide]
Avg. MABP in mm Hg (No. of Rats): 96 mm Hg

Cc1ccc(C(=O)N(CCCCn2ccnc2)C2=Nc3cccc4cccc2c34)cc1 [N-(Benz(cd)indol-2-yl)-N-(4-(1H-imidazol-1-yl)butyl)-4-methylbenzamide]
Avg. MABP in mm Hg (No. of Rats): 82 mm Hg

O=C(c1ccccc1Cl)N(CCCCn1ccnc1)C1=Nc2cccc3cccc1c23 [N-Benz(cd)indol-2-yl-2-chloro-N-(4-(1-imidazol-1-yl)butyl)benzamide]
Avg. MABP in mm Hg (No. of Rats): 80 mm Hg

O=C(c1ccc(Cl)c(Cl)c1)N(CCCCn1ccnc1)C1=Nc2cccc3cccc1c23 [N-Benz(cd)indol-2-yl-3,4-dichloro-N-(4-(1H-imidazol-1-yl)butyl)benzamide]
Avg. MABP in mm Hg (No. of Rats): 96 mm Hg

CC(=O)N(CCCn1cncn1)C1=Nc2cccc3cccc1c23 [N-Benz(cd)indol-2-yl-N-(3-(1H-1,2,4-triazol-1-yl)propyl)acetamide]
Avg. MABP in mm Hg (No. of Rats): 118 mm Hg

O=C(Nc1ccccc1)N(CCCn1ccnc1)C1=Nc2cccc3cccc1c23 [N-Benz(cd)indol-2-yl-N-(3-(1H-imidazol-1-yl)propyl)-N'-phenylurea]
Avg. MABP in mm Hg (No. of Rats): 145 mm Hg

CC(=O)N(CCCn1ccnc1)C1=Nc2cccc3cccc1c23 [N-Benz(cd)indol-2-yl-N-(3-(1H-imidazol-1-yl)propyl)acetamide]
Avg. MABP in mm Hg (No. of Rats): 102 mm Hg

O=C(c1cccc(C(F)(F)F)c1)N(CCCCn1ccnc1)C1=Nc2cccc3cccc1c23 [N-Benz(cd)indol-2-yl-N-(4-(1H-imidazol 1-yl)butyl)-3-trifluoromethylbenzamide]
Avg. MABP in mm Hg (No. of Rats): 77 mm Hg

O=C(c1cccs1)N(CCCCn1ccnc1)C1=Nc2cccc3cccc1c23 [N-Benz(cd)indol-2-yl-N-(4-(1H-imidazol-1-yl)butyl)-2-thiophenecarboxamide]
Avg. MABP in mm Hg (No. of Rats): 86 mm Hg

O=C(c1ccc(F)cc1)N(CCCCn1ccnc1)C1=Nc2cccc3cccc1c23 [N-Benz(cd)indol-2-yl-N-(4-(1H-imidazol-1-yl)butyl)-4-fluorobenzamide]
Avg. MABP in mm Hg (No. of Rats): 85 mm Hg

O=C(c1ccccc1)N(CCCCn1ccnc1)C1=Nc2cccc3cccc1c23 [N-Benz(cd)indol-2-yl-N-(4-(1H-imidazol-1-yl)butyl)benzamide]
Avg. MABP in mm Hg (No. of Rats): 80 mm Hg

CCCCCCC(=O)N(CCCCn1ccnc1)C1=Nc2cccc3cccc1c23 [N-Benz(cd)indol-2-yl-N-(4-(1H-imidazol-1-yl)butyl)heptanamide]
Avg. MABP in mm Hg (No. of Rats): 76 mm Hg

CCCCCC(=O)N(CCCCn1ccnc1)C1=Nc2cccc3cccc1c23 [N-Benz(cd)indol-2-yl-N-(4-(1H-imidazol-1-yl)butyl)hexanamide]
Avg. MABP in mm Hg (No. of Rats): 102 mm Hg

CCCCC(=O)N(CCCCn1ccnc1)C1=Nc2cccc3cccc1c23 [N-Benz(cd)indol-2-yl-N-(4-(1H-imidazol-1-yl)butyl)pentanamide]
Avg. MABP in mm Hg (No. of Rats): 84 mm Hg

CCC(=O)N(CCCCn1ccnc1)C1=Nc2cccc3cccc1c23 [N-Benz(cd)indol-2-yl-N-(4-(1H-imidazol-1-yl)butyl)propanamide]
Avg. MABP in mm Hg (No. of Rats): 83 mm Hg

O=C(c1cccc(C(F)(F)F)c1)N(CCCCc1cccnc1)C1=Nc2cccc3cccc1c23 [N-Benz(cd)indol-2-yl-N-(4-(3-pyridinyl)butyl)-3-trifluoromethylbenzamide]
Avg. MABP in mm Hg (No. of Rats): 115 mm Hg
